According to patent US5663148A, “Anaphylatoxin receptor ligands containing lipophilic residues” (Abbott Laboratories, priority 1994, dated 1997):
pKi: −log10 of the molar value. *1 amine or outer side, *2 acyl side, *3 side chain or, on linkers, in order; H or OH if unused. Where a SMILES comes first, the peptide text is derived from it. [ ]: non-standard residue; d: D form. The star is where a group is joined. ξ: configuration not given here. X5 = O=C([C@H](CC1CCCCC1)N(Cc1ccccc1)[*:1])[*:2]; X9 = CN(CCCc1ccccc1)[C@@H](CC1CCCCC1)C(=O)*; d(hhPhe) = N[C@H](CCCc1ccccc1)C(=O)O; X2 = O=C(C(CCOc1ccccc1)N[*:1])[*:2]; Hydrocinnamoyl = O=C(CCc1ccccc1)*; hPhe = N[C@@H](CCc1ccccc1)C(=O)O; Cha = N[C@@H](CC1CCCCC1)C(=O)O; ξhhPhe = NC(CCCc1ccccc1)C(=O)O; X7 = O=C(C(O)CC1CCCCC1)*; X3 = Nc1ccccc1C=CC(=O)*; PhAc = O=C(Cc1ccccc1)*; Ahp = NCCCCCCC(=O)O; Ahx = NCCCCCC(=O)O

Target: T1, C5a receptor (Homo sapiens, UniProt P21730)
T1 construct: from tissue; host or cells: polymorphonuclear leukocyte (PMNL) membrane fragments
T1 sequence (P21730 1-350): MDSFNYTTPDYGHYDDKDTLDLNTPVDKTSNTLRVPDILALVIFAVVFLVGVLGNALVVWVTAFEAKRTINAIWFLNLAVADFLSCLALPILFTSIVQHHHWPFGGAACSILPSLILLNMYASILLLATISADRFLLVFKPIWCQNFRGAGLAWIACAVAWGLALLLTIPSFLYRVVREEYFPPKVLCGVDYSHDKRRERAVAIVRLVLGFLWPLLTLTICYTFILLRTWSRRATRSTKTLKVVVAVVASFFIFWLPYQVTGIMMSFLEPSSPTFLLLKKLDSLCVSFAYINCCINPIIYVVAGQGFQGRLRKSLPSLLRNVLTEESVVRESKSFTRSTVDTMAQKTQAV
Assay: Anaphylatoxin (C5a) receptor binding Ki determination, 125I-C5a on PMNL membrane fragments
Settings: read-out: Ki (In vitro C5a Receptor Binding Potency)
Procedure: The membrane-bound radiolabeled C5a was separated from the free radiolabeled C5a by filtration, and the recovered gamma radioactivity was measured. […] Free and membrane-bound ligand were separated by filtration.

Compound	pKi
CC(C)C[C@H](NC(=O)CNC(=O)[C@@H](CC1CCCCC1)NC(=O)CCCCCN)C(=O)NC(CCCc1ccccc1)C(=O)N[C@@H](CCCNC(=N)N)C(=O)O (single isomer, unassigned) [Example 35]	5.90
CC(C)C[C@H](NC(=O)CNC(=O)[C@H](CC1CCCCC1)NC(=O)CCCCCCN)C(=O)NC(CCOc1ccccc1)C(=O)N[C@@H](CCCNC(=N)N)C(=O)O (some centres unmarked) [Example 48] (H-[Ahp][Cha]GL[X2]R-OH)	6.64
CC(C)C[C@H](NC(=O)CNC(=O)C(N)CCCc1ccccc1)C(=O)N[C@H](CCCc1ccccc1)C(=O)N[C@@H](CCCNC(=N)N)C(=O)O (single isomer, unassigned) [Example 105]	6.48
CN[C@@H](Cc1ccccc1)C(=O)N[C@@H](CCCCN)C(=O)N1CCC[C@H]1C(=O)N[C@@H](CC1CCCCC1)C(=O)N[C@@H](C)C(=O)N[C@@H](CC(C)C)C(=O)NC(CCCc1ccccc1)C(=O)N[C@@H](CCCNC(=N)N)C(=O)O (single isomer, unassigned) [Example 129]	7.77
CC(C)C[C@H](NC(=O)CNC(=O)[C@H](CC1CCCCC1)NC(=O)NCc1ccc(CN)cc1)C(=O)NC(CCCc1ccccc1)C(=O)N[C@@H](CCCNC(=N)N)C(=O)O (mixture of isomers) [Example 145, N-[N-(4-Aminomethylbenzyl)aminocarbonyl]-{(2S)-2-Amino-3-cyclohexylpropanoyl}-Glycyl-Leucyl-{(R/S)-2-Amino-5-phenylpentanoyl}-Arginyl-OH]	5.15
CC(C)C[C@H](NC(=O)[C@@H](C)NC(=O)[C@H](CC1CCCCC1)NC(=O)CCCCCN)C(=O)NC(CCCc1ccccc1)C(=O)N[C@@H](CCCNC(=N)N)C(=O)O (single isomer, unassigned) [Example 126]	4.87
CC(C)C[C@H](NC(=O)CNC(=O)C(O)CC1CCCCC1)C(=O)N[C@H](CCCc1ccccc1)C(=O)N[C@@H](CCCNC(=N)N)C(=O)O (stereo partly drawn) [Example 132, N-(3-Cyclohexyl-2-hydroxypropionyl)-Glycyl-Leucyl-{(R)-2-Amino-5-phenylpentanoyl}-Arginyl-OH] (X7-GL[d(hhPhe)]R-OH)	6.38
CC(C)[C@H](NC(=O)CNC(=O)[C@H](CC1CCCCC1)NC(=O)CCCCCN)C(=O)NC(CCCc1ccccc1)C(=O)N[C@@H](CCCNC(=N)N)C(=O)O (single isomer, unassigned) [Example 101]	4.28
CC(C)C[C@H](NC(=O)CNC(=O)[C@H](CC1CCCCC1)NC(=O)CCc1ccccc1)C(=O)N[C@H](CCCc1ccccc1)C(=O)N[C@@H](CCCNC(=N)N)C(=O)O [Example 49, N-(3-Phenylpropanoyl)-{(2S)-2-Amino-3-cyclohexylpropanoyl}-Glycyl-Leucyl-{(R)-2-Amino-5-phenylpentanoyl}-Arginyl-OH] (Hydrocinnamoyl-[Cha]GL[d(hhPhe)]R-OH)	6.14
CC(C)C[C@H](NC(=O)CNC(=O)[C@H](CC1CCCCC1)NC(=O)CCCCCCN)C(=O)N(C)C(CCCc1ccccc1)C(=O)N[C@@H](CCCNC(=N)N)C(=O)O (mixture of isomers) [Example 28]	5.76
CC(C)C[C@H](NC(=O)CNC(=O)[C@H](CC1CCCCC1)N(C)CCCc1ccccc1)C(=O)N[C@H](CCCc1ccccc1)C(=O)N[C@@H](CCCNC(=N)N)C(=O)O [Example 103, N-(3-Phenylpropyl)-N-methyl-{(2S)-2-Amino-3-cyclohexylpropanoyl}-Glycyl-Leucyl-{(R)-2-Amino-5-phenylpentanoyl}-Arginyl-OH] (X9-GL[d(hhPhe)]R-OH)	5.88
CC(C)C[C@H](NC(=O)[C@@H]1CCCN1C(=O)[C@H](CC1CCCCC1)NC(=O)CNC(=O)CCCCCN)C(=O)NC(CCCc1ccccc1)C(=O)N[C@@H](CCCNC(=N)N)C(=O)O (single isomer, unassigned) [Example 110]	5.03
CC(C)C[C@H](NC(=O)[C@H](C)NC(=O)[C@H](CC1CCCCC1)NC(=O)[C@@H]1CCCN1C(=O)CCCCCN)C(=O)NC(CCCc1ccccc1)C(=O)N[C@@H](CCCNC(=N)N)C(=O)O (stereo partly drawn) [Example 81, N-(6-Aminohexanoyl)-Prolyl-{(2S)-2-Amino-3-cyclohexylpropanoyl}-Alanyl-Leucyl-{(+)-2-Amino-5-phenylpentanoyl}-Arginyl-OH] (H-[Ahx]P[Cha]AL[ξhhPhe]R-OH)	6.96
C[C@H](NC(=O)CNC(=O)[C@H](CC1CCCCC1)NC(=O)CCCCCN)C(=O)NC(CCCc1ccccc1)C(=O)N[C@@H](CCCNC(=N)N)C(=O)O (stereo partly drawn) [Example 74, N-(6-Aminohexanoyl)-{(2S)-2-Amino-3-cyclohexylpropanoyl}-Glycyl-Alanyl-{(+)-2-Amino-5-phenylpentanoyl}-Arginyl-OH] (H-[Ahx][Cha]GA[ξhhPhe]R-OH)	4.04
CC(C)C[C@H](NC(=O)[C@H](C)NC(=O)[C@H](CC1CCCCC1)NC(=O)CNC(=O)CCCCCN)C(=O)NC(CCCc1ccccc1)C(=O)N[C@@H](CCCNC(=N)N)C(=O)O (single isomer, unassigned) [Example 33]	6.17
CC(C)C[C@H](NC(=O)CNC(=O)[C@H](CC1CCCCC1)NC(=O)[C@H](N)CCCCN)C(=O)NC(CCCc1ccccc1)C(=O)N[C@@H](CCCNC(=N)N)C(=O)O (single isomer, unassigned) [Example 57]	5.71
CC(C)C[C@H](NC(=O)[C@H](CCCCN)NC(=O)[C@@H](N)CC1CCCCC1)C(=O)NC(CCCc1ccccc1)C(=O)N[C@@H](CCCNC(=N)N)C(=O)O (single isomer, unassigned) [Example 96]	4.48
CC(C)C[C@H](NC(=O)CNC(=O)[C@H](CC1CCCCC1)N(Cc1ccccc1)C(=O)CCCCCCN)C(=O)N[C@H](CCCc1ccccc1)C(=O)N[C@@H](CCCNC(=N)N)C(=O)O [Example 64, N-(7-Aminoheptanoyl)-{(2S)-2-Amino-3-cyclohexylpropanoyl}(N-Benzyl)-Glycyl-Leucyl-{(R)-2-Amino-5-phenylpentanoyl}-Arginyl-OH] (H-[Ahp][X5]GL[d(hhPhe)]R-OH)	6.33
CC(C)C[C@H](NC(=O)CNC(=O)C=Cc1ccccc1N)C(=O)N[C@H](CCCc1ccccc1)C(=O)N[C@@H](CCCNC(=N)N)C(=O)O [Example 106, N-(2-Aminocinnamoyl)-Glycyl-Leucyl-{(R)-2-Amino-5-phenylpentanoyl}-Arginyl-OH] (X3-GL[d(hhPhe)]R-OH)	6.39
CC(C)C[C@H](NC(=O)CNC(=O)[C@H](CC1CCCCC1)NCc1ccccc1)C(=O)N[C@H](CCCc1ccccc1)C(=O)N[C@@H](CCCNC(=N)N)C(=O)O [Example 63, H-{(2S)-2-Amino-3-cyclohexylpropanoyl}(N-Benzyl)-Glycyl-Leucyl-{(R)-2-Amino-5-phenylpentanoyl}-Arginyl-OH] (H-[X5]GL[d(hhPhe)]R-OH)	6.40
CC(C)C[C@H](NC(=O)[C@H](C)NC(=O)[C@H](CC1CCCCC1)NC(=O)CCCCCN)C(=O)NC(CCCc1ccccc1)C(=O)N[C@@H](CCCNC(=N)N)C(=O)O (single isomer, unassigned) [Example 135]	5.89
CC(=O)N[C@@H](CC1CCCCC1)C(=O)NCC(=O)N[C@@H](CC(C)C)C(=O)NC(CCCc1ccccc1)C(=O)N[C@@H](CCCNC(=N)N)C(=O)O (single isomer, unassigned) [Example 45]	5.12
CC(C)C[C@H](NC(=O)CNC(=O)[C@@H](N)CCc1ccccc1)C(=O)N[C@H](CCCc1ccccc1)C(=O)N[C@@H](CCCNC(=N)N)C(=O)O [Example 117, H-{(S)-2-Amino-4-phenylbutyryl}-Glycyl-Leucyl-{(R)-2-Amino-5-phenylpentanoyl}-Arginyl-OH] (H-[hPhe]GL[d(hhPhe)]R-OH)	6.43
CC(C)C[C@H](NC(=O)Cc1c[nH]c2ccccc12)C(=O)N[C@@H](CCCc1ccccc1)C(=O)N[C@@H](CCCNC(=N)N)C(=O)O [Example 20, N-{Indole-3-acetyl}-Leucyl-{(S)-2-Amino-5-phenylpentanoyl}-Arginyl-OH]	5.18
CC(C)C[C@H](NC(=O)CNC(=O)[C@H](Cc1ccccc1)NC(=O)CCCCCN)C(=O)NC(CCCc1ccccc1)C(=O)N[C@@H](CCCNC(=N)N)C(=O)O (single isomer, unassigned) [Example 124, N-(6-Aminohexanoyl)-Phenylalanyl-Glycyl-Leucyl{(R/S)-2-Amino-5-phenylpentanoyl}-Arginyl-OH]	4.47
CC(C)C[C@H](NC(=O)CNC(=O)Cc1ccccc1)C(=O)N[C@H](CCCc1ccccc1)C(=O)N[C@@H](CCCNC(=N)N)C(=O)O [Example 93, N-Phenylacetyl-Glycyl-Leucyl-{(R)-2-Amino-5-phenylpentanoyl}-Arginyl-OH] (PhAc-GL[d(hhPhe)]R-OH)	6.77
CC(C)C[C@H](NC(=O)CCNC(=O)[C@H](CC1CCCCC1)NC(=O)CCCCCN)C(=O)NC(CCCc1ccccc1)C(=O)N[C@@H](CCCNC(=N)N)C(=O)O (single isomer, unassigned) [Example 115]	5.25
CC(C)C[C@H](NC(=O)CNC(=O)[C@H](CC1CCCCC1)NC(=O)CN(C)C(=O)CCCN)C(=O)NC(CCCc1ccccc1)C(=O)N[C@@H](CCCNC(=N)N)C(=O)O (single isomer, unassigned) [Example 112]	4.75
CC(C)C[C@H](NC(=O)CNC(=O)[C@@H](N)Cc1c[nH]c2ccccc12)C(=O)N[C@H](CCCc1ccccc1)C(=O)N[C@@H](CCCNC(=N)N)C(=O)O [Example 130, H-Tryptophanyl-Glycyl-Leucyl-{(R)-2-Amino-5-phenylpentanoyl}-Arginyl-OH] (H-WGL[d(hhPhe)]R-OH)	6.85
